Results reported in US11912665B1, “4-(2,4,5-tris(4-chlorophenyl)-1H-imidazol-1-yl)butanoic acid as an antimicrobial compound” (KING FAISAL UNIVERSITY, priority 2023, dated 2024).

Tests used:
Assay type in all cases: cell-based
Bacillus cereus = test: agar plate disc-diffusion, antibacterial activity; settings: nutrient agar, 37° C., 48 hours, DMSO zone subtracted; for inhibition zone Bacillus Cereus B: B = concentration of comp. = 30,000 μL; for inhibition zone Bacillus Cereus C: C = concentration of comp. = 50,000 μL
Method: (§1) The agar plate disc-diffusion method was applied. […] The discs were then placed onto the surface of agar plates (nutrient agar for bacteria and Sabouraud's dextrose agar for fungi) seeded with the test organism. Each plate contained 15 mL of the agar medium, previously seeded with 0.2 mL of the broth culture of each organism pregrown for 18 hours. The plates were incubated at 37° C. for 48 hours, and 72 hours for fungi. The inhibition zones were measured in millimeters (mm). Discs impregnated with DMSO were used as a control, and its inhibition zone was subtracted from the tested compound actual inhibition zone.

Staphylococcus aureus = test: agar plate disc-diffusion, antibacterial activity; settings: nutrient agar, 37° C., 48 hours, DMSO zone subtracted; for inhibition zone Staphylococcus aureus A: A = concentration of comp. = 10,000 μL; for inhibition zone Staphylococcus aureus B: B = concentration of comp. = 30,000 μL; for inhibition zone Staphylococcus aureus C: C = concentration of comp. = 50,000 μL
Method: as §1

Escherichia coli = test: agar plate disc-diffusion, antibacterial activity; settings: nutrient agar, 37° C., 48 hours, DMSO zone subtracted; for inhibition zone Escherichia coli A: A = concentration of comp. = 10,000 μL; for inhibition zone Escherichia coli B: B = concentration of comp. = 30,000 μL; for inhibition zone Escherichia coli C: C = concentration of comp. = 50,000 μL
Method: (§2) The agar plate disc-diffusion method was applied. Sterilized filter papers (6 mm in diameter) were wetted with 10 μL of a solution of 4-(2,4,5-tris(4-chlorophenyl)-1H-imidazol-1-yl)butanoic acid (V) to be tested, containing 10 mg/mL in DMSO, and the discs were allowed to air dry. The discs were then placed onto the surface of agar plates (nutrient agar for bacteria and Sabouraud's dextrose agar for fungi) seeded with the test organism. Each plate contained 15 mL of the agar medium, previously seeded with 0.2 mL of the broth culture of each organism pregrown for 18 hours. The plates were incubated at 37° C. for 48 hours, and 72 hours for fungi. The inhibition zones were measured in millimeters (mm). Discs impregnated with DMSO were used as a control, and its inhibition zone was subtracted from the tested compound actual inhibition zone.

Pseudomonas aeruginosa = test: agar plate disc-diffusion, antibacterial activity; settings: nutrient agar, 37° C., 48 hours, DMSO zone subtracted; for inhibition zone Pseudomonas aeruginosa A: A = concentration of comp. = 10 mg/mL; for inhibition zone Pseudomonas aeruginosa B: B = concentration of comp. = 30,000 μL; for inhibition zone Pseudomonas aeruginosa C: C = concentration of comp. = 50,000 μL
Method: as §2

Aspergillus flavus = test: agar plate disc-diffusion, antifungal activity; settings: Sabouraud's dextrose agar, 72 hours, DMSO zone subtracted; for inhibition zone Aspergillus flavus A: A = concentration of comp. = 10,000 μL; for inhibition zone Aspergillus flavus B: B = concentration of comp. = 30,000 μL; for inhibition zone Aspergillus flavus C: C = concentration of comp. = 50,000 μL
Method: as §1

[1] = system: Chrysosporium keratinophilum; test: agar plate disc-diffusion, antifungal activity; settings: Sabouraud's dextrose agar, 72 hours, DMSO zone subtracted; for inhibition zone Chrysosporium keratinophilum A: A = concentration of comp. = 10,000 μL; for inhibition zone Chrysosporium keratinophilum B: B = concentration of comp. = 30,000 μL; for inhibition zone Chrysosporium keratinophilum C: C = concentration of comp. = 50,000 μL
Method: as §1

SMILES	inhibition zone Bacillus Cereus A (Bacillus cereus) [mm]	inhibition zone Bacillus Cereus B (Bacillus cereus) [mm]	inhibition zone Bacillus Cereus C (Bacillus cereus) [mm]	inhibition zone Staphylococcus aureus A (Staphylococcus aureus) [mm]	inhibition zone Staphylococcus aureus B (Staphylococcus aureus) [mm]	inhibition zone Staphylococcus aureus C (Staphylococcus aureus) [mm]	inhibition zone Escherichia coli A (Escherichia coli) [mm]	inhibition zone Escherichia coli B (Escherichia coli) [mm]	inhibition zone Escherichia coli C (Escherichia coli) [mm]	inhibition zone Pseudomonas aeruginosa A (Pseudomonas aeruginosa) [mm]	inhibition zone Pseudomonas aeruginosa B (Pseudomonas aeruginosa) [mm]	inhibition zone Pseudomonas aeruginosa C (Pseudomonas aeruginosa) [mm]	inhibition zone Aspergillus flavus A (Aspergillus flavus) [mm]	inhibition zone Aspergillus flavus B (Aspergillus flavus) [mm]	inhibition zone Aspergillus flavus C (Aspergillus flavus) [mm]	inhibition zone Chrysosporium keratinophilum A [1] [mm]	inhibition zone Chrysosporium keratinophilum B [1] [mm]	inhibition zone Chrysosporium keratinophilum C [1] [mm]
O=C(O)c1cn(C2CC2)c2cc(N3CCNCC3)c(F)cc2c1=O [Cip., ciprofloxacin]	29	31	42	42	44	53	30	39	60	29	30	53	29	30	42	29	30	53
O=C(O)CCCn1c(-c2ccc(Cl)cc2)nc(-c2ccc(Cl)cc2)c1-c1ccc(Cl)cc1 [V, 4-(2,4,5-tris(4-chlorophenyl)-1H-imidazol-1-yl)butanoic acid]	19	25	40	14	19	26	24	35	51	26	31	46	16	22	36	25	28	49
